From ChEMBL document CHEMBL6078660, “Goondomycins A-H: Carbocyclic ansa-Polyketides from an Australian Pasture Streptomyces with Selective Activity against Dirofilaria immitis” (J Nat Prod, 2024)
Peptide text beside a SMILES is read from it. * marks the point of attachment. NHCH2CH2OH = OCCN*; For = O=C*

What was measured:
[1] = system: Haemonchus contortus; experiment: Anthelmintic activity against Haemonchus contortus L1 to L3 stage assessed as larvae development incubated for 4 days; format: functional, organism-based; settings: 96 h
[2] = system: Escherichia coli; experiment: Antibacterial activity against Escherichia coli ATCC 11775 assessed as inhibition of bacterial growth incubated for 24 hrs by spectrophotometer based analysis; format: functional, organism-based; settings: ATCC 11775, 24 h
[3] = Cytotoxicity against human SW620 cells incubated for 24 hrs by MTT assay; format: toxicity, cell-based, SW-620
[4] = system: Dirofilaria immitis; experiment: Anthelmintic activity against Dirofilaria immitis L4 stage assessed as inhibition of motility incubated for approximately 72 hrs; format: functional, organism-based
[5] = system: Candida albicans; experiment: Antifungal activity against Candida albicans ATCC 10231 assessed as inhibition of fungal growth incubated for 48 hrs by spectrophotometer based analysis; format: functional, organism-based; settings: ATCC 10231, 48 h
[6] = system: Dirofilaria immitis; experiment: Anthelmintic activity against Dirofilaria immitis microfilaria stage assessed as inhibition of motility incubated for approximately 72 hrs; format: functional, organism-based
[7] = Cytotoxicity against human NCI-H460 cells incubated for 24 hrs by MTT assay; format: toxicity, cell-based
[8] = system: Staphylococcus aureus; experiment: Antibacterial activity against Staphylococcus aureus ATCC 25923 assessed as inhibition of bacterial growth incubated for 24 hrs by spectrophotometer based analysis; format: functional, organism-based; settings: ATCC 25923, 24 h

Question: For CC[C@H](C)[C@H]1O[C@]2(CC[C@@H]1C)C[C@@H]1C[C@@H](C/C=C(\C)[C@@H](O[C@H]3C[C@H](OC)[C@@H](O[C@H]4C[C@H](OC)[C@@H](O)[C@H](C)O4)[C@H](C)O3)[C@@H](C)/C=C/C=C3\CO[C@@H]4[C@H](O)C(C)=C[C@@H](C(=O)O1)[C@]34O)O2, which EC50 [1] is on record?
Answer: Its EC50 is 0.001 µM.

Question: Which IC50 [2] does the source give for CC1=C2O[C@]3(O)C(N)=C2C(=C(O)C1=O)[C@@H]1O[C@@H](CC[C@H](C)/C=C(\C)C[C@@H](C)C[C@@H]3C)[C@H](C)[C@H](O)[C@@H]1C here?
Answer: Its IC50 is greater than 30 µM.

Question: And the IC50 at 24 h [3]?
Answer: Its IC50 at 24 h is greater than 30 µM.

Question: And the EC50 [4]?
Answer: The EC50 was 5 µM.

Question: What about the IC50 [5] of the same molecule?
Answer: The IC50 was greater than 30 µM.

Question: And the EC50 [6]?
Answer: The EC50 was 0.5 µM.

Question: And the IC50 at 24 h [7]?
Answer: Its IC50 at 24 h is greater than 30 µM.

Question: What about the IC50 [8] of the same molecule?
Answer: Its IC50 is no less than 3.6 µM.

Question: And the EC50 [1]?
Answer: Its EC50 is 24 µM.

Question: With CSC1=C2C3=C(C)C(=O)C(O)=C2[C@@H]2O[C@@H](CC[C@H](C)/C=C(\C)C[C@@H](C)C[C@H](C)[C@]1(O)O3)[C@H](C)[C@H](O)[C@@H]2C as the molecule, how does the IC50 [2] read?
Answer: Its IC50 is greater than 30 µM.

Question: And the IC50 at 24 h [3]?
Answer: Its IC50 at 24 h is 2.4 µM.

Question: What about the EC50 [4] of the same molecule?
Answer: The EC50 was 1.4 µM.

Question: What about the IC50 [5] of the same molecule?
Answer: The IC50 was greater than 30 µM.

Question: What about the EC50 [6] of the same molecule?
Answer: The EC50 was 0.3 µM.

Question: What about the IC50 at 24 h [7] of the same molecule?
Answer: Its IC50 at 24 h is 13.5 µM.

Question: And the IC50 [8]?
Answer: The IC50 was no less than 3.6 µM.

Question: And the EC50 [1]?
Answer: The EC50 was 30 µM.

Question: Which results are given for C/C1=C\[C@@H](C)CC[C@@H]2O[C@@H](c3c(O)c(O)c(C)c4c3C(=O)[C@@](O)(O4)[C@@H](C)C[C@H](C)C1)[C@@H](C)[C@@H](O)[C@H]2C?
Answer: IC50 [2]: > 30 µM; IC50 at 24 h [3]: > 30 µM; EC50 [4]: 24 µM; IC50 [5]: > 30 µM; EC50 [6]: 1.3 µM; IC50 at 24 h [7]: > 30 µM; IC50 [8]: ≥ 3.6 µM; EC50 [1]: 50 µM

Question: What does the source list for CC1=c2oc3c(O)c2=C(C(=O)C1=O)[C@@H]1O[C@@H](CC[C@H](C)/C=C(\C)C[C@@H](C)C[C@@H]3C)[C@H](C)[C@H](O)[C@@H]1C?
Answer: IC50 [2]: > 30 µM; IC50 at 24 h [3]: > 30 µM; EC50 [4]: 1.8 µM; IC50 [5]: > 30 µM; EC50 [6]: 0.2 µM; IC50 at 24 h [7]: > 30 µM; IC50 [8]: ≥ 3.6 µM; EC50 [1]: 43 µM

Question: For CC1=C2O[C@]3(O)C=C2C(=C(O)C1=O)[C@@H]1O[C@@H](CC[C@H](C)/C=C(\C)C[C@@H](C)C[C@@H]3C)[C@H](C)[C@H](O)[C@@H]1C, which IC50 [2] is on record?
Answer: The IC50 was greater than 30 µM.

Question: What about the IC50 at 24 h [3] of the same molecule?
Answer: Its IC50 at 24 h is greater than 30 µM.

Question: And the EC50 [4]?
Answer: Its EC50 is 18 µM.

Question: What about the IC50 [5] of the same molecule?
Answer: The IC50 was greater than 30 µM.

Question: What about the EC50 [6] of the same molecule?
Answer: The EC50 was 4.1 µM.

Question: And the IC50 at 24 h [7]?
Answer: Its IC50 at 24 h is greater than 30 µM.

Question: And the IC50 [8]?
Answer: The IC50 was no less than 3.6 µM.

Question: And the EC50 [1]?
Answer: Its EC50 is 49 µM.

Question: Which EC50 [4] does the source give for CC[C@]1([C@H]2O[C@H]([C@@H]3O[C@](O)(CO)[C@@H](C)C[C@H]3C)C[C@H]2C)CC[C@@H]([C@@]2(C)CC[C@@]3(C[C@@H](O)[C@H](C)[C@H]([C@H](C)[C@H](OC)[C@H](C)C(=O)O)O3)O2)O1 here?
Answer: The EC50 was 0.4 µM.

Question: Which IC50 [2] does the source give for CC1=C(O)C(=O)c2c3sc(c2C1=O)C(=O)[C@@H](C)C[C@H](C)C/C(C)=C/[C@@H](C)CC[C@@H](O)[C@H](C)[C@H](O)[C@@H]3C here?
Answer: The IC50 was greater than 30 µM.

Question: What about the IC50 at 24 h [3] of the same molecule?
Answer: Its IC50 at 24 h is greater than 30 µM.

Question: And the EC50 [4]?
Answer: The EC50 was 19 µM.

Question: And the IC50 [5]?
Answer: Its IC50 is greater than 30 µM.

Question: And the EC50 [6]?
Answer: The EC50 was 2.1 µM.

Question: What about the IC50 at 24 h [7] of the same molecule?
Answer: The IC50 at 24 h was greater than 30 µM.

Question: What about the IC50 [8] of the same molecule?
Answer: Its IC50 is no less than 3.6 µM.

Question: And the EC50 [1]?
Answer: Its EC50 is 47 µM.

Question: Which IC50 [2] does the source give for CC1=C(O)C(=O)C2=C(C1=O)[C@H](S(=O)(=O)O)C(=O)[C@@H](C)C[C@H](C)C/C(C)=C/[C@@H](C)CC[C@@H]1O[C@@H]2[C@@H](C)[C@@H](O)[C@H]1C here?
Answer: Its IC50 is greater than 30 µM.

Question: And the IC50 at 24 h [3]?
Answer: Its IC50 at 24 h is greater than 30 µM.

Question: And the EC50 [4]?
Answer: The EC50 was 44 µM.

Question: What about the IC50 [5] of the same molecule?
Answer: Its IC50 is greater than 30 µM.

Question: And the EC50 [6]?
Answer: Its EC50 is 21 µM.

Question: What about the IC50 at 24 h [7] of the same molecule?
Answer: Its IC50 at 24 h is greater than 30 µM.

Question: What about the IC50 [8] of the same molecule?
Answer: The IC50 was no less than 3.6 µM.

Question: And the EC50 [1]?
Answer: The EC50 was 44 µM.

Question: With CC(=O)N[C@@H](CSC1=C2C3=C(C)C(=O)C(O)=C2[C@@H]2O[C@@H](CC[C@H](C)/C=C(\C)C[C@@H](C)C[C@H](C)[C@]1(O)O3)[C@H](C)[C@H](O)[C@@H]2C)C(=O)O as the molecule, how does the IC50 [2] read?
Answer: Its IC50 is greater than 30 µM.

Question: And the IC50 at 24 h [3]?
Answer: Its IC50 at 24 h is greater than 30 µM.

Question: What about the EC50 [4] of the same molecule?
Answer: Its EC50 is 22 µM.

Question: What about the IC50 [5] of the same molecule?
Answer: Its IC50 is greater than 30 µM.

Question: What about the EC50 [6] of the same molecule?
Answer: Its EC50 is 3.6 µM.

Question: And the IC50 at 24 h [7]?
Answer: The IC50 at 24 h was greater than 30 µM.

Question: What about the IC50 [8] of the same molecule?
Answer: Its IC50 is no less than 3.6 µM.

Question: And the EC50 [1]?
Answer: The EC50 was 39 µM.

Question: For CC(C)C[C@H](NC(=O)[C@H](C)NC(=O)CNC(=O)[C@@H](NC=O)C(C)C)C(=O)N[C@@H](C)C(=O)N[C@H](C(=O)N[C@H](C(=O)N[C@H](C(=O)N[C@@H](Cc1c[nH]c2ccccc12)C(=O)N[C@@H](CC(C)C)C(=O)N[C@@H](Cc1c[nH]c2ccccc12)C(=O)N[C@@H](CC(C)C)C(=O)N[C@@H](Cc1c[nH]c2ccccc12)C(=O)N[C@@H](CC(C)C)C(=O)N[C@@H](Cc1c[nH]c2ccccc12)C(=O)NCCO)C(C)C)C(C)C)C(C)C (For-VGALAVVVWLWLWLW-NHCH2CH2OH), which EC50 [6] is on record?
Answer: The EC50 was 0.1 µM.
